Test results reported in US10100043B2, “Substituted aldehyde compounds and methods for their use in increasing tissue oxygenation” (Global Blood Therapeutics, Inc., priority 2013, dated 2018).

These compounds were tested against T1, purified Hemoglobin S (HbS) (Homo sapiens, UniProt P68871+P69905, E7V) (assay: Modulation of hemoglobin oxygen affinity: oxygen equilibrium curves (OEC) in purified HbS, HEMOX analyzer). Settings: compounds tested at 30 μM; 25 μM purified HbS, 45 min at 37° C., pH 7.4.
T1 construct: HbS was purified by a modified procedure; from tissue; host or cells: blood of homozygous sickle cell patients (CHORI)
Assay type: biochemical
Experimental: Oxygen equilibrium curves (OEC) in purified Hemoglobin S (HbS) were measured by the change in p50, the partial pressure of oxygen at which the heme binding sites in the HbS sample are 50% saturated with oxygen. HbS was purified by a modified procedure (Antonini and Brunori, 1971; Hemoglobin and Myoglobin in their Reactions with Ligands; North Holland Publishing Company; Amsterdam, London) from blood obtained from homozygous sickle cell patients though the Hemoglobinopathy Center at Children's Hospital Oakland Research Institute (CHORI) with Institutional Review Board approval. Oxygen equilibrium curves were carried out with a HEMOX analyzer, (TCS Scientific, New Hope, Pa.). Five hundred μL of 250 μM purified HbS were diluted into 4.5 mL of HEMOX buffer (30 mM TES, 130 mM NaCl, 5 mM KCl, pH=7.4) resulting in a final hemoglobin concentration of 25 μM. The compounds were added at the final desired concentrations. The mixture was incubated for 45 min at 37° C. and then transferred to the Hemox sample chamber. The samples were saturated with oxygen by flushing with compressed air for 10 minutes. The samples were then flushed with pure nitrogen and the absorbance of deoxy-Hb was recorded as a function of the solution pO2. The oxygen equilibrium data was then fit to the Hill Model to obtain values for p50. The deoxygenation curves for both HbS alone (control) and HbS in the presence of compound were collected with the TCS software. The p50 for purified Hbs was typically 13.8±1.6. Delta p50 values were obtained from the p50 value for control minus the p50 value for HbS treated with compound divided by the p50 value for the control.
The compounds of Table 1 that were where tested in the assay above were all found to have positive delta p50 values. Delta p50% is calculated from [[p50(HbS)-p50(HbS treated with compound)]/p50(HbS)]×100. Table 2 below lists the delta p50% values where + indicates a delta p50% of between 0 and 29 and ++ indicates a delta p50% of 30 or greater. Unless noted otherwise, the compounds in Table 2 were tested at 30 μM.

Question: Which “delta p50” value does the source give for `COC(=O)C1CCCC(COc2cccc(O)c2C=O)C1` (centres unmarked) [Compound 7, methyl 3-((2-formyl-3-hydroxyphenoxy)methyl)cyclohexanecarboxylate] here?
Answer: ++ (++ indicates a delta p50% of 30 or greater)

Question: For `COC(=O)[C@H]1CC[C@@H](COc2cccc(O)c2C=O)CC1` [Compound 1, cis-methyl 4-((2-formyl-3-hydroxyphenoxy)methyl)cyclohexanecarboxylate], which “delta p50” value is on record?
Answer: ++ (++ indicates a delta p50% of 30 or greater)

Question: How did the “delta p50” value turn out when `O=Cc1c(O)cccc1OC[C@H]1CC[C@@H](C(=O)O)CC1` [Compound 2, cis-4-((2-formyl-3-hydroxyphenoxy)methyl)cyclohexanecarboxylic acid] was run?
Answer: ++ (++ indicates a delta p50% of 30 or greater)

Question: With `COC(=O)C1CCCC(COc2cccc(O)c2C=O)C1` (centres unmarked) [Compound 9, methyl 3-((2-formyl-3-hydroxyphenoxy)methyl)cyclohexanecarboxylate] as the compound, how does the “delta p50” value read?
Answer: + (+ indicates a delta p50% of between 0 and 29)

Question: How did the “delta p50” value turn out when `COC(=O)[C@H]1CC[C@H](COc2cccc(O)c2C=O)CC1` [Compound 4, trans-methyl 4-((2-formyl-3-hydroxyphenoxy)methyl)cyclohexanecarboxylate] was run?
Answer: ++ (++ indicates a delta p50% of 30 or greater)

Each compound was assayed against T2, purified HBS (Homo sapiens, UniProt P68871+P69905, E7V) (assay: HbS polymerization assay (delay time, absorbance at 700 nm)). Settings: percent delay (% DT) of polymerization vs HBS alone; 50 μM purified HBS, 1.8 M potassium phosphate pH 7.4.
T2 construct: HbS is purified by the CRO VIRUSYS, from blood obtained from homozygous sickle cell patients; tissue VIRUSYS (CRO that did the purification); host or cells: blood of homozygous sickle cell patients (CHORI)
Assay type: biochemical
Experimental: Polymerization assays are carried out in vitro using purified HBS exchanged into 1.8 M potassium phosphate buffer at pH 7.4. Using a slightly modified protocol (Antonini and Brunori, 1971), HbS is purified by the CRO VIRUSYS, from blood obtained from homozygous sickle cell patients through the Hemoglobinopathy Center at Children's Hospital Oakland Research Institute (CHORI) with Institutional Review Board approval. Compounds are prepared in 100% DMSO and a desired amount is added to 50 μM of purified HBS at a final DMSO concentration of 0.3%. Final potassium phosphate concentration is adjusted to 1.8 M using a combination of 2.5 M potassium phosphate stock solution and water at pH 7.4. The reaction mixture is incubated for an hour at 37° C. and then transferred into a 24-well plate for deoxygenation in a glove box containing 99.5% nitrogen and 0.5% oxygen. The 24-well plate is not covered and incubated at 4° C. on a plate cooler inside the glove box for one and a half hours. Fifty μL of the reaction mixture is transferred into a 96-well plate and the absorbance at 700 nm is measured every minute for one hour at 37° C. in a plate reader located inside the glove box. A plot of the absorbance against time is fitted using a Boltzman sigmoidal fit and the delay time (from zero to time at half Vmax) is measured. To compare and rank compounds, delay times are expressed as percent delay (% DT), which is defined as the difference in delay times for HBS/compound and HBS alone multiplied by 100 and divided by the delay time for HBS alone.
Compounds listed below have been tested in the polymerization assay. Activity ranges are defined by the number of dagger (†) symbols indicated. † denotes activity ≥40% but ≤80%; †† denotes activity >80% but ≤120%; ††† denotes activity >120% but ≤140%; †††† denotes activity >160%.

Question: How did the “% delta Delay” value turn out when `COC(=O)C1CCCC(COc2cccc(O)c2C=O)C1` (centres unmarked) [Compound 7, methyl 3-((2-formyl-3-hydroxyphenoxy)methyl)cyclohexanecarboxylate] was run?
Answer: †† (†† denotes activity >80% but ≤120%)

Question: Which “% delta Delay” value does the source give for `COC(=O)[C@H]1CC[C@@H](COc2cccc(O)c2C=O)CC1` [Compound 1, cis-methyl 4-((2-formyl-3-hydroxyphenoxy)methyl)cyclohexanecarboxylate] here?
Answer: †† (†† denotes activity >80% but ≤120%)

Question: With `O=Cc1c(O)cccc1OC[C@H]1CC[C@@H](C(=O)O)CC1` [Compound 2, cis-4-((2-formyl-3-hydroxyphenoxy)methyl)cyclohexanecarboxylic acid] as the compound, how does the “% delta Delay” value read?
Answer: †††† (†††† denotes activity >160%)

Question: `COC(=O)[C@H]1CC[C@H](COc2cccc(O)c2C=O)CC1` [Compound 4, trans-methyl 4-((2-formyl-3-hydroxyphenoxy)methyl)cyclohexanecarboxylate] was tested. Which “% delta Delay” value did it give?
Answer: ††† (††† denotes activity >120% but ≤140%)

The compounds below were run against T3, HbS/A (Homo sapiens, UniProt P68871+P69905, E7V) (assay: Relaxed-to-tense transition assay (R/T assay)). Settings: compounds tested at 9 μM; 3 μM HbS/A, 30 μM DPG, 1 hr at 37° C., deoxygenation with N2.
T3 construct: A mixture of HbS/A was purified from blood; from tissue; host or cells: blood of homozygous sickle cell patients (CHORI)
Assay type: biochemical
Experimental: A relaxed-to-tense transition assay (“R/T assay”) was used to determine the ability of substituted benzaldehyde compounds to maintain the high-oxygen affinity relaxed (R) state of hemoglobin under deoxygenated conditions. This ability can be expressed as a “delta R” value (i.e., the change in the time-period of the R state after hemoglobin is treated with a compound, as compared to the period without treatment with the compound). Delta R is the % R to remaining after the compounds treatment compared with no treatment (e.g. if R % without treatment is 8% while with treatment with a target compound is 48% R at 30 μM, then % R is 40% for that compound.
A mixture of HbS/A was purified from blood obtained from homozygous sickle cell patients though the Hemoglobinopathy Center at Children's Hospital Oakland Research Institute (CHORI) with Institutional Review Board approval. HbS/A (at a final concentration of 3 μM) was incubated for 1 hr at 37° C. in presence or absence of compounds in […] potassium phosphate buffer, pH=7.4 and 30 μM 2, 3 diphosphoglycerate (DPG) in 96 well plates in a final volume of 160 μl. Compounds were added at different concentrations (3 μM to 100 μM final concentrations). Plates were covered with a Mylar film. After incubation was completed the Mylar cover was removed and the plates were placed in a Spectrostar Nano plate reader previously heated at 37° C. Five minutes later, N2 (flow rate=20 L/min) was flowed through the spectrophotometer. Spectroscopic measurements (300 nm to 700 nm) were taken every 5 min for 2 hours. Data analysis was performed by using linear regression from the data retrieved for all wavelengths.
Table 4 below lists the delta R values where + indicates a delta R of between 0 and 30, ++ indicates a delta R of between 30 and 50, and +++ indicates a delta R of 50 or greater. Unless noted otherwise, the compounds in Table 2 were tested at 9 μM.

Question: Which “delta R (%)” value does the source give for `COC(=O)[C@H]1CC[C@@H](COc2cccc(O)c2C=O)CC1` [Compound 1, cis-methyl 4-((2-formyl-3-hydroxyphenoxy)methyl)cyclohexanecarboxylate] here?
Answer: +++ (+++ indicates a delta R of 50 or greater)

Question: How did the “delta R (%)” value turn out when `O=Cc1c(O)cccc1OC[C@H]1CC[C@@H](C(=O)O)CC1` [Compound 2, cis-4-((2-formyl-3-hydroxyphenoxy)methyl)cyclohexanecarboxylic acid] was run?
Answer: ++ (++ indicates a delta R of between 30 and 50)

Question: With `COC(=O)C1CCCC(COc2cccc(O)c2C=O)C1` (centres unmarked) [Compound 9, methyl 3-((2-formyl-3-hydroxyphenoxy)methyl)cyclohexanecarboxylate] as the compound, how does the “delta R (%)” value read?
Answer: +++ (+++ indicates a delta R of 50 or greater)

Question: For `COC(=O)[C@H]1CC[C@H](COc2cccc(O)c2C=O)CC1` [Compound 4, trans-methyl 4-((2-formyl-3-hydroxyphenoxy)methyl)cyclohexanecarboxylate], which “delta R (%)” value is on record?
Answer: +++ (+++ indicates a delta R of 50 or greater)

Each compound was assayed on whole blood from homozygous sickle cell patients (assay: Whole blood assay: oxygen equilibrium curves of whole blood, HEMOX analyzer). Settings: compounds tested at 1000 μM; hematocrit 20%, 1 hour at 37° C.
Assay type: cell-based, human
Experimental: Oxygen Equilibrium Curves (OEC) of whole blood before and after treatment with different concentrations of substituted benzaldehyde compounds were performed as follows using a HEMOX analyzer (TCS Scientific, New Hope, Pa.). Blood samples from homozygous sickle cell patients were obtained though the Hemoglobinopathy Center at Children's Hospital Oakland Research Institute (CHORI) with Institutional Review Board approval. The hematocrit was adjusted to 20% using autologous plasma and the blood samples were incubated for 1 hour at 37° C. in absence or presence of compounds. 100 μl of these samples were added to 5 mL of Hemox buffer (30 mM TES, 130 mM NaCl, 5 mM KCl, pH=7.4) at 37° C. and then transferred to the Hemox sample chamber. The samples were saturated with oxygen by flushing with compressed air for 10 minutes. The samples were then flushed with pure nitrogen and the respective absorbances of oxy- and deoxy-Hb are recorded as a function of the solution pO2. The oxygen equilibrium data were then fitted to the Hill Model to obtain values for p50. The deoxygenation curves for both whole blood alone (control) and whole blood in the presence of the compound were collected with the TCS software.
Table 5 below lists the delta p50% values where + indicates a delta p50% of between 0 and 29, ++ indicates a delta p50% of between 30 and 50, and +++ indicates a delta p50% of 50 or greater. The compounds in Table 2 were tested at 1000 μM.

Question: Which “delta p50%” value does the source give for `COC(=O)C1CCCC(COc2cccc(O)c2C=O)C1` (centres unmarked) [Compound 7, methyl 3-((2-formyl-3-hydroxyphenoxy)methyl)cyclohexanecarboxylate] here?
Answer: + (+ indicates a delta p50% of between 0 and 29)

Question: Which “delta p50%” value does the source give for `COC(=O)[C@H]1CC[C@@H](COc2cccc(O)c2C=O)CC1` [Compound 1, cis-methyl 4-((2-formyl-3-hydroxyphenoxy)methyl)cyclohexanecarboxylate] here?
Answer: + (+ indicates a delta p50% of between 0 and 29)

Question: `O=Cc1c(O)cccc1OC[C@H]1CC[C@@H](C(=O)O)CC1` [Compound 2, cis-4-((2-formyl-3-hydroxyphenoxy)methyl)cyclohexanecarboxylic acid] was tested. Which “delta p50%” value did it give?
Answer: ++ (++ indicates a delta p50% of between 30 and 50)

Question: With `COC(=O)[C@H]1CC[C@H](COc2cccc(O)c2C=O)CC1` [Compound 4, trans-methyl 4-((2-formyl-3-hydroxyphenoxy)methyl)cyclohexanecarboxylate] as the compound, how does the “delta p50%” value read?
Answer: + (+ indicates a delta p50% of between 0 and 29)
